Laboratory results as given in patent US8278455B2, “5- or 6-substituted benzimidazole derivatives as inhibitors of respiratory syncytial virus replication” (Janssen Pharmaceutica N.V., priority 2003, dated 2012).

How the values were obtained:
[1] = system: Respiratory Syncytial Virus; assay: In vitro screening for activity against Respiratory Syncytial Virus (MTT tetrazolium colorimetric assay, HeLa cells); assay type: cell-based; conditions: human respiratory syncytial virus, 168 h; protection against RSV cytopathology in HeLa cells, 7 days after infection; pEC50 = −log of EC50 in molar units
How it was run: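 HeLa cells (4×10^5 cells/ml) added 2 h after ~100 TCID50 RSV to wells holding five-fold compound dilutions, in Eagle's medium with 5% FCS and 20 mM Hepes; mock-infected rows gave cytotoxicity. After 7 days at 37 °C, MTT read at 540 minus 690 nm; EC50/CC50 from dose-response, reported as pEC50 categories.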

Row | SMILES | melting point [°C] | EC50 [1] [nM]
1 | Cc1cc(C)cc(NCc2ccc3nc(NCC(O)CO)n(Cc4nc(C)ccc4O)c3c2)c1 (centres unmarked) [Compound 175, 3-[6-[(3,5-dimethyl-phenylamino)methyl]-1-(3-hydroxy-6-methyl-pyridin-2-ylmethyl)-1H-benzoimidazol-2-ylamino]-propane-1,2-diol] | 128 | 31.6
2 | COc1ccc(CCNc2nc3ccc(CNc4cc(C)cc(C)c4)cc3n2Cc2nc(C)ccc2O)cc1 [Compound 190, 2-{6-[(3,5-Dimethyl-phenylamino)-methyl]-2-[2-(4-methoxy-phenyl)-ethylamino]-benzoimidazol-1-ylmethyl}-6-methyl-pyridin-3-ol] | 178 | > 100000
3 | Cc1cc(C)cc(NCc2ccc3nc(NCCCN4CCN(C)CC4)n(Cc4nc(C)ccc4O)c3c2)c1 [Compound 174, 2-{6-[(3,5-Dimethyl-phenylamino)-methyl]-2-[3-(4-methyl-piperazin-1-yl)-propylamino]-benzoimidazol-1-ylmethyl}-6-methyl-pyridin-3-ol] | 150 | 3.98
4 | Cc1ccc(O)c(Cn2c(NC3CCN(CCN)CC3)nc3ccc(CCc4ccccc4)cc32)n1.Cl [Compound 143, 2-{2-[1-(2-amino-ethyl)-piperidin-4-ylamino]-6-phenethyl-benzoimidazol-1-ylmethyl}-6-methyl-pyridin-3-ol hydrochloride salt] | 181 | 1
5 | Cc1ccc(O)c(Cn2c(NC3CCN(CCO)CC3)nc3ccc(CCCN)cc32)n1.Cl [Compound 160, 2-{6-(3-Amino-propyl)-2-[1-(2-hydroxy-ethyl)-piperidin-4-ylamino]-benzoimidazol-1-ylmethyl}-6-methyl-pyridin-3-ol hydrochloride salt] | 185 | 12.6
6 | Cc1ccc(O)c(Cn2c(NC3CCN(CCN)CC3)nc3ccc(C=Cc4ccccc4)cc32)n1.Cl [Compound 146, 2-{2-[1-(2-Amino-ethyl)-piperidin-4-ylamino]-6-styryl-benzoimidazol-1-ylmethyl}-6-methyl-pyridin-3-ol hydrochloride salt] | 260 | 1.26
7 | Cc1ccc(O)c(Cn2c(NC3CCN(C)CC3)nc3ccccc32)n1 [Compound 101] | > 260 | 398
